Laboratory results taken from PubChem BioAssay (NCI).
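Values below derive from 48-hour exposures of cells grown in 96-well plates, with endpoints linearly interpolated between the two concentrations bracketing the appropriate inhibition level. TGI: concentration producing complete growth inhibition.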

Key:
Assay in all cases: NCI anticancer screen, dose series, 48 h
HS 578T breast = system: HS 578T breast
OVCAR-3 ovarian = system: OVCAR-3 ovarian
NCI/ADR-RES ovarian = system: NCI/ADR-RES ovarian
KM12 colon = system: KM12 colon
TK-10 renal = system: TK-10 renal
CAKI-1 renal = system: CAKI-1 renal
MCF7 breast = system: MCF7 breast
SK-OV-3 ovarian = system: SK-OV-3 ovarian
NCI-H460 lung = system: NCI-H460 lung
OVCAR-4 ovarian = system: OVCAR-4 ovarian
UACC-257 melanoma = system: UACC-257 melanoma
OVCAR-5 ovarian = system: OVCAR-5 ovarian
HOP-62 NSCLC = system: HOP-62 NSCLC
SW-620 colon = system: SW-620 colon
T-47D breast = system: T-47D breast
DU-145 prostate = system: DU-145 prostate
OVCAR-8 ovarian = system: OVCAR-8 ovarian
SNB-75 CNS = system: SNB-75 CNS
HCT-116 colon = system: HCT-116 colon
K-562 leukemia = system: K-562 leukemia
COLO 205 colon = system: COLO 205 colon
MOLT-4 leukemia = system: MOLT-4 leukemia
UACC-62 melanoma = system: UACC-62 melanoma
U251 CNS = system: U251 CNS
SF-539 CNS = system: SF-539 CNS
ACHN renal = system: ACHN renal
HOP-92 NSCLC = system: HOP-92 NSCLC
A549 NSCLC = system: A549 NSCLC
A498 renal = system: A498 renal
M14 melanoma = system: M14 melanoma
EKVX NSCLC = system: EKVX NSCLC
IGROV1 ovarian = system: IGROV1 ovarian
SN12C renal = system: SN12C renal
BT-549 breast = system: BT-549 breast
NCI-H23 lung = system: NCI-H23 lung
MDA-MB-231 breast = system: MDA-MB-231 breast
NCI-H522 lung = system: NCI-H522 lung
RPMI-8226 leukemia = system: RPMI-8226 leukemia
UO-31 renal = system: UO-31 renal
786-0 renal = system: 786-0 renal
NCI-H226 lung = system: NCI-H226 lung
MDA-N = system: MDA-N
MDA-MB-435 = system: MDA-MB-435
MALME-3M melanoma = system: MALME-3M melanoma
CCRF-CEM leukemia = system: CCRF-CEM leukemia
HL-60(TB) leukemia = system: HL-60(TB) leukemia
HCT-15 colon = system: HCT-15 colon
RXF 393 renal = system: RXF 393 renal
SF-268 CNS = system: SF-268 CNS
HT29 colon = system: HT29 colon
LOX IMVI melanoma = system: LOX IMVI melanoma
SNB-19 CNS = system: SNB-19 CNS
SK-MEL-5 melanoma = system: SK-MEL-5 melanoma
PC-3 prostate = system: PC-3 prostate
SF-295 CNS = system: SF-295 CNS
HCC-2998 colon = system: HCC-2998 colon
SK-MEL-2 melanoma = system: SK-MEL-2 melanoma
SK-MEL-28 melanoma = system: SK-MEL-28 melanoma

**Q.** Which results are given for `N#Cc1cc(-c2nc3ccc(F)cc3s2)ccc1N`?
**A.** TGI (HS 578T breast): > 100 µM; TGI (OVCAR-3 ovarian): > 100 µM; TGI (NCI/ADR-RES ovarian): > 100 µM; TGI (KM12 colon): > 100 µM; TGI (TK-10 renal): > 100 µM; TGI (CAKI-1 renal): > 100 µM; TGI (MCF7 breast): > 100 µM; TGI (SK-OV-3 ovarian): 96.6 µM; TGI (NCI-H460 lung): > 100 µM; TGI (OVCAR-4 ovarian): > 100 µM; TGI (UACC-257 melanoma): > 100 µM; TGI (OVCAR-5 ovarian): > 100 µM; TGI (HOP-62 NSCLC): > 100 µM; TGI (SW-620 colon): > 100 µM; TGI (T-47D breast): > 100 µM; TGI (DU-145 prostate): > 100 µM; TGI (OVCAR-8 ovarian): > 100 µM; TGI (SNB-75 CNS): > 100 µM; TGI (HCT-116 colon): > 100 µM; TGI (K-562 leukemia): > 100 µM; TGI (COLO 205 colon): > 100 µM; TGI (MOLT-4 leukemia): > 100 µM; TGI (UACC-62 melanoma): > 100 µM; TGI (U251 CNS): > 100 µM; TGI (SF-539 CNS): > 100 µM; TGI (ACHN renal): > 100 µM; TGI (HOP-92 NSCLC): > 100 µM; TGI (A549 NSCLC): > 100 µM; TGI (A498 renal): > 100 µM; TGI (M14 melanoma): > 100 µM; TGI (EKVX NSCLC): > 100 µM; TGI (IGROV1 ovarian): > 100 µM; TGI (SN12C renal): > 100 µM; TGI (BT-549 breast): > 100 µM; TGI (NCI-H23 lung): > 100 µM; TGI (MDA-MB-231 breast): > 100 µM; TGI (NCI-H522 lung): > 100 µM; TGI (RPMI-8226 leukemia): > 100 µM; TGI (UO-31 renal): > 100 µM; TGI (786-0 renal): > 100 µM; TGI (NCI-H226 lung): > 100 µM; TGI (MDA-N): > 100 µM; TGI (MDA-MB-435): > 100 µM; TGI (MALME-3M melanoma): > 100 µM; TGI (CCRF-CEM leukemia): > 100 µM; TGI (HL-60(TB) leukemia): > 100 µM; TGI (HCT-15 colon): > 100 µM; TGI (RXF 393 renal): > 100 µM; TGI (SF-268 CNS): > 100 µM; TGI (HT29 colon): > 100 µM; TGI (LOX IMVI melanoma): > 100 µM; TGI (SNB-19 CNS): > 100 µM; TGI (SK-MEL-5 melanoma): > 100 µM; TGI (PC-3 prostate): > 100 µM; TGI (SF-295 CNS): > 100 µM

**Q.** Which results are given for `COc1ccc(-c2nc3ccccc3c(=O)[nH]2)c(OC)c1`?
**A.** TGI (HS 578T breast): > 100 µM; TGI (OVCAR-3 ovarian): > 100 µM; TGI (NCI/ADR-RES ovarian): > 100 µM; TGI (KM12 colon): > 100 µM; TGI (CAKI-1 renal): > 100 µM; TGI (MCF7 breast): > 100 µM; TGI (SK-OV-3 ovarian): > 100 µM; TGI (NCI-H460 lung): > 100 µM; TGI (OVCAR-4 ovarian): > 100 µM; TGI (UACC-257 melanoma): > 100 µM; TGI (OVCAR-5 ovarian): > 100 µM; TGI (HOP-62 NSCLC): > 100 µM; TGI (SW-620 colon): > 100 µM; TGI (T-47D breast): > 100 µM; TGI (DU-145 prostate): > 100 µM; TGI (OVCAR-8 ovarian): > 100 µM; TGI (SNB-75 CNS): > 100 µM; TGI (HCT-116 colon): > 100 µM; TGI (HCC-2998 colon): > 100 µM; TGI (COLO 205 colon): > 100 µM; TGI (MOLT-4 leukemia): > 100 µM; TGI (UACC-62 melanoma): > 100 µM; TGI (U251 CNS): > 100 µM; TGI (ACHN renal): > 100 µM; TGI (A549 NSCLC): > 100 µM; TGI (A498 renal): > 100 µM; TGI (M14 melanoma): > 100 µM; TGI (EKVX NSCLC): > 100 µM; TGI (IGROV1 ovarian): > 100 µM; TGI (SN12C renal): > 100 µM; TGI (BT-549 breast): > 100 µM; TGI (NCI-H23 lung): > 100 µM; TGI (MDA-MB-231 breast): > 100 µM; TGI (RPMI-8226 leukemia): 83.4 µM; TGI (UO-31 renal): > 100 µM; TGI (786-0 renal): > 100 µM; TGI (NCI-H226 lung): > 100 µM; TGI (MDA-N): > 100 µM; TGI (MDA-MB-435): > 100 µM; TGI (MALME-3M melanoma): > 100 µM; TGI (CCRF-CEM leukemia): > 100 µM; TGI (HCT-15 colon): > 100 µM; TGI (RXF 393 renal): > 100 µM; TGI (SF-268 CNS): > 100 µM; TGI (HT29 colon): > 100 µM; TGI (SNB-19 CNS): > 100 µM; TGI (SK-MEL-5 melanoma): > 100 µM; TGI (SK-MEL-2 melanoma): > 100 µM; TGI (PC-3 prostate): > 100 µM; TGI (SF-295 CNS): > 100 µM

**Q.** For `CCCCCCCCCCCC(=O)c1c(O)cc(C)oc1=O`, which TGI (HS 578T breast) is on record?
**A.** > 100 µM

**Q.** And the TGI (OVCAR-3 ovarian)?
**A.** > 100 µM

**Q.** And the TGI (NCI/ADR-RES ovarian)?
**A.** > 100 µM

**Q.** And the TGI (KM12 colon)?
**A.** > 100 µM

**Q.** What about the TGI (TK-10 renal) of the same molecule?
**A.** > 100 µM

**Q.** And the TGI (CAKI-1 renal)?
**A.** > 100 µM

**Q.** And the TGI (MCF7 breast)?
**A.** > 100 µM

**Q.** And the TGI (SK-OV-3 ovarian)?
**A.** > 100 µM

**Q.** What about the TGI (NCI-H460 lung) of the same molecule?
**A.** > 100 µM

**Q.** What about the TGI (UACC-257 melanoma) of the same molecule?
**A.** > 100 µM

**Q.** And the TGI (OVCAR-5 ovarian)?
**A.** > 100 µM

**Q.** And the TGI (HOP-62 NSCLC)?
**A.** > 100 µM

**Q.** What about the TGI (SW-620 colon) of the same molecule?
**A.** > 100 µM

**Q.** And the TGI (T-47D breast)?
**A.** > 100 µM

**Q.** And the TGI (DU-145 prostate)?
**A.** > 100 µM

**Q.** What about the TGI (OVCAR-8 ovarian) of the same molecule?
**A.** > 100 µM

**Q.** What about the TGI (SNB-75 CNS) of the same molecule?
**A.** > 100 µM

**Q.** And the TGI (HCT-116 colon)?
**A.** > 100 µM

**Q.** What about the TGI (HCC-2998 colon) of the same molecule?
**A.** > 100 µM

**Q.** What about the TGI (K-562 leukemia) of the same molecule?
**A.** > 100 µM

**Q.** And the TGI (COLO 205 colon)?
**A.** > 100 µM

**Q.** And the TGI (MOLT-4 leukemia)?
**A.** > 100 µM

**Q.** And the TGI (UACC-62 melanoma)?
**A.** > 100 µM

**Q.** And the TGI (U251 CNS)?
**A.** > 100 µM

**Q.** What about the TGI (SF-539 CNS) of the same molecule?
**A.** 93.3 µM

**Q.** And the TGI (ACHN renal)?
**A.** > 100 µM

**Q.** What about the TGI (SK-MEL-28 melanoma) of the same molecule?
**A.** > 100 µM

**Q.** And the TGI (A549 NSCLC)?
**A.** > 100 µM

**Q.** And the TGI (A498 renal)?
**A.** > 100 µM

**Q.** What about the TGI (M14 melanoma) of the same molecule?
**A.** > 100 µM

**Q.** And the TGI (EKVX NSCLC)?
**A.** > 100 µM

**Q.** And the TGI (IGROV1 ovarian)?
**A.** > 100 µM

**Q.** And the TGI (SN12C renal)?
**A.** > 100 µM

**Q.** What about the TGI (BT-549 breast) of the same molecule?
**A.** > 100 µM

**Q.** What about the TGI (NCI-H23 lung) of the same molecule?
**A.** > 100 µM

**Q.** And the TGI (MDA-MB-231 breast)?
**A.** > 100 µM

**Q.** What about the TGI (NCI-H522 lung) of the same molecule?
**A.** > 100 µM

**Q.** And the TGI (RPMI-8226 leukemia)?
**A.** > 100 µM

**Q.** And the TGI (UO-31 renal)?
**A.** > 100 µM

**Q.** And the TGI (786-0 renal)?
**A.** > 100 µM

**Q.** And the TGI (NCI-H226 lung)?
**A.** > 100 µM

**Q.** And the TGI (MDA-N)?
**A.** > 100 µM

**Q.** What about the TGI (MDA-MB-435) of the same molecule?
**A.** > 100 µM

**Q.** What about the TGI (MALME-3M melanoma) of the same molecule?
**A.** > 100 µM

**Q.** And the TGI (CCRF-CEM leukemia)?
**A.** > 100 µM

**Q.** What about the TGI (HL-60(TB) leukemia) of the same molecule?
**A.** > 100 µM

**Q.** What about the TGI (HCT-15 colon) of the same molecule?
**A.** > 100 µM

**Q.** What about the TGI (SF-268 CNS) of the same molecule?
**A.** > 100 µM

**Q.** What about the TGI (HT29 colon) of the same molecule?
**A.** > 100 µM

**Q.** And the TGI (LOX IMVI melanoma)?
**A.** > 100 µM

**Q.** And the TGI (SNB-19 CNS)?
**A.** > 100 µM

**Q.** What about the TGI (SK-MEL-5 melanoma) of the same molecule?
**A.** 68.6 µM

**Q.** And the TGI (SK-MEL-2 melanoma)?
**A.** > 100 µM

**Q.** What about the TGI (PC-3 prostate) of the same molecule?
**A.** > 100 µM

**Q.** What about the TGI (SF-295 CNS) of the same molecule?
**A.** > 100 µM
